Laboratory results reported in patent publication US20150119352A1, “DINUCELOSIDE POLYPHOSPHATES FOR THE TREATMENT OF PAIN” (GlobalAcorn Ltd., priority 2012, published 2015).
Where two headings read alike, the source gives them in different places.

How the values were obtained:
[1] = system: male Wistar rats; experiment: Formalin test (nociceptive behaviour, spontaneous jerking of injected paw); format: in vivo, rat; conditions: for nociceptive behavior after control injection of compound alone: 100 μM (100 μL), no formalin; for IC50: Rattus norvegicus; for IC50 First phase (acute pain), calculated / IC50 Second phase (chronic pain), calculated: Table 1, assuming 40 g rat body weight; for First phase (acute pain) / First phase (acute pain) (μg/kg) / Second phase (chronic pain) / Second phase (chronic pain) (μg/kg): Table 2; for First phase (acute pain) Human (70 kg) nmol / Second phase (chronic pain) Human (70 kg) nmol: Table 2, estimated indicative dose for 70 kg human; for First phase (acute pain) Rat (40 g) nmol / Second phase (chronic pain) Rat (40 g) nmol: Table 2, per 40 g rat; for recalculated effective concentration (second phase): assuming 40 g rat body weight; for number of nocifensive events triggered by the injection of formalin: co-injection 100 μL with formalin
Protocol: FIG. 6. Effects of subcutaneous Ap4A analogues on pain responses induced by intraplantar (right hindpaw) formalin injection. Rats were subcutaneously injected with formalin solution alone (0.5%, 50 μL, control) or co-injected with the formalin solution and solutions with AppCH2ppA (1 μM-100 μM, 100 μL) or AppNHppA (0.1 μM-100 μM, 100 μL). Age-matched control animals were injected with saline. A. Time-course of the effects of subcutaneous AppCH2ppA (a) and AppNHppA (b) on the number of the spontaneous jerkings of the injected paw. B. Bar-graphs of the effects of AppCH2ppA (a, b) and AppNHppA (c, d) on the integral number of spontaneous jerkings. Measurements were made during the acute phase (0-6 min) and tonic phase (7-45 min) of the formalin response. C. Dose-response curves for AppCH2ppA (a) and AppNHppA (b) during tonic and acute phases.
The formalin test experiments were performed on 21-day old male Wistar rats, weighing 40±5 g according to the method described previously (Simonetti et al, 2006; Yegutkin et al, 2008). Briefly, animal was acclimated to an acrylic observation chamber for at least 1 h before the injection of formalin ([…] of 0.5% solution in 0.9% saline) into the dorsal surface of the right hindpaw. Age-matched control animals were injected with saline (100 μL). Immediately after the injection, each animal was returned to the observation chamber and its behavioural characteristics were recorded for 45 min. We noticed consistently observed type of response: spontaneous jerking of the injected paw. The number of jerks was measured for each […], using self-developed computer software.
The effects of AppNHppA and AppCH2ppA were examined on the behavioral reactions of rats in inflammatory pain models. Injection of diluted formalin into a rodent's hindpaw produces a biphasic nociceptive response consisting of immediate (acute phase) and tonic (inflammatory phase) components. The first phase of a formalin response (i.e. 0-5 min after injection) involves a direct effect of formalin on the pain receptors, while changes in animal behavior during the second tonic phase (i.e. 7-45 min after injection) are caused by hyperalgesia that develops due to the sensitization of nociceptive and spinal neurons via mechanisms that are triggered by repetitive stimulation during the first phase.

[2] = biological target: T1, rat homomeric P2X3 receptors (Rattus norvegicus, UniProt P49654); experiment: Whole-cell patch clamp on HEK cells expressing rat homomeric P2X3 receptors; format: cell-based; conditions: for depression of P2X3 current: 1 μM; for nH of the activation dose-response curve: activation of P2X3 receptors
T1 construct: transfected with rat full-length P2X3 cDNA subcloned into pIRES2-EGFP; expressed in transfected cells; host or cells: HEK293T
T1 sequence (P49654 1-397): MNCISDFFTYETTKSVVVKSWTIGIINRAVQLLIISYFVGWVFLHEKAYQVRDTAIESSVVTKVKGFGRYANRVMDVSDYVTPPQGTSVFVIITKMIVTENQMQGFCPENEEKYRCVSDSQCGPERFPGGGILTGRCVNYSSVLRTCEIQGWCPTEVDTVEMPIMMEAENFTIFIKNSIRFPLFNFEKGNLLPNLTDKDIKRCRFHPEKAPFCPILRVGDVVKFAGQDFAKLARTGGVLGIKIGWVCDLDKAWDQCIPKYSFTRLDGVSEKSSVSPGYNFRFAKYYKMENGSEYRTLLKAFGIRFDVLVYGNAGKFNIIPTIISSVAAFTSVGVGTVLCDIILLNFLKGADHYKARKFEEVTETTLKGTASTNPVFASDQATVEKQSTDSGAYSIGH
Protocol: Rat trigeminal (TG), nodose (NG) or dorsal root ganglion (DRG) neurons in culture were prepared as described previously (Sokolova et al., 2001; Simonetti et al., 2006). Neurons were plated on poly-L-lysine (0.2 mg/mL)-coated Petri dishes and cultured for 1 to 2 days under an atmosphere containing 5% CO2. Cells were used within 2 days of plating when they lacked processes. HEK293T cells were prepared as reported previously (Fabbretti et al., 2004; Sokolova et al., 2004) and transfected with rat full-length P2X3 cDNA subcloned into pIRES2-EGFP (Clontech, Mountain View, Calif., USA).
Trigeminal, nodose, DRG neurons or HEK cells were recorded in the whole-cell configuration while being continuously superfused (at 2 mL/min) with control solution containing (in mM): 152 NaCl, 5 KCl, 1 MgCl2, 2 CaCl2, 10 glucose, and 10 HEPES; pH was adjusted to 7.4 with NaOH and osmolarity was adjusted to 320 mOsM with glucose. […] Responses to selective P2X3 receptor agonist α,β-methylene-ATP (α,β-meATP; resistant to ectoATPase hydrolysis, Sigma-Aldrich) were measured using an EPC-9 amplifier and HEKA Patch Master software (HEKA Electronik, Germany). Cells were voltage-clamped at −70 mV. In most cells, series resistance was compensated by 80%. To determine half effective concentration of agonist (EC50), dose-response curves for α,β-meATP were constructed by applying different agonist doses to the same cells and fitting them with a logistic equation (Origin 8.0, Microcal, Northampton, Mass.).
Agonists and antagonists were applied, usually for 2 sec, via a rapid superfusion system (Rapid Solution Changer RSC-200; BioLogic Science Instruments, Grenoble, France) placed 100 to 150 μm near the cell. The time for the solution exchange across the cell was approximately 30 ms, as judged with liquid junction potential measurements. All chemicals, including enzymes for cell culture, were from Sigma (St. Louis, Mo.). Culture media were obtained from Invitrogen (Milan, Italy).
The peak amplitudes of the responses were measured using HEKA Patch Master software. For each agonist, dose-response plots were constructed by normalizing data with respect to the maximum response. All data are presented as mean±S.E.M. (n=the number of cells) with statistical significance assessed by paired t-test (for parametric data) or Mann-Whitney rank sum test (for non-parametric data). Best fits of data with a sigmoid function were compared with respective control fits using Origin 8.0 software. A value of P<0.05 was accepted as indicative of statistically significant difference.
The inhibitory (suppressive) potencies of AppNHppA and AppCH2ppA via high affinity desensitization (HAD) were evaluated. The inventors applied both synthetic analogues in different experiments during rhythmic 2 s long (2 […]) activations of P2X3 receptors using 10 μM α,β-meATP (for protocol see FIG. 2 top).

[3] = Table 1, concentration, read-out: IC50 First phase (acute pain)
[4] = Table 1, concentration, read-out: IC50 Second phase (chronic pain)
[5] = co-injection (100 μL) with formalin into paw, read-out: IC50 in the first (acute) phase
[6] = co-injection (100 μL) with formalin into paw, read-out: IC50 in the second (tonic) phase

Nc1ncnc2c1ncn2[C@@H]1O[C@H](COP(=O)(O)OP(=O)(O)CP(=O)(O)OP(=O)(O)OC[C@H]2O[C@@H](n3cnc4c(N)ncnc43)C(O)C2O)C(O)C1O (stereo in doubt) [AppCH2ppA]
nociceptive behavior after control injection of compound alone [1]: Lack of nociceptive behavior
IC50 [1, 3]: 32000 ± 2200 nM
IC50 [1, 4]: 510 ± 60 nM
IC50 [1, 5]: 31900 ± 22000 nM
IC50 [1, 6]: 500 ± 60 nM
IC50 First phase (acute pain), calculated [1]: 80 ± 5.5 nmol/kg
IC50 Second phase (chronic pain), calculated [1]: 1.28 + 0.06 nmol/kg
First phase (acute pain) [1]: 80 ± 5.5 nmol/kg
First phase (acute pain) (μg/kg) [1]: (67) μg/kg
Second phase (chronic pain) [1]: 1.28 ± 0.06 nmol/kg
Second phase (chronic pain) (μg/kg) [1]: (1.067) μg/kg
First phase (acute pain) Human (70 kg) nmol [1]: 5600 nmol
Second phase (chronic pain) Human (70 kg) nmol [1]: 89.6 nmol
First phase (acute pain) Rat (40 g) nmol [1]: 3.2 nmol
Second phase (chronic pain) Rat (40 g) nmol [1]: 0.0512 nmol
recalculated effective concentration (second phase) [1]: 1.28±0.06 nmolkg
number of nocifensive events triggered by the injection of formalin [1]: potently reduced
kH, first (acute) phase ([1]; co-injection with formalin): 0.82±0.09
kH, second (tonic) phase ([1]; co-injection with formalin): 0.89±0.18
times more effective reduction of nocifensive behavior in second (tonic) phase compared with first (acute) phase ([1]; rat, in vivo): 60 times
depression of P2X3 current ([2]; α,β-meATP pulses every 30 s (high rate)): 81±3%
depression of P2X3 current ([2]; α,β-meATP pulses every 2 min (low rate)): 61.3±5%
nH of the activation dose-response curve [2]: 2.27±0.56
EC50 ([2]; agonist applied for 2 s, read-out: EC50 for activation of P2X3 mediated currents): 9300 ± 1700 nM
IC50 ([2]; test pulses of 10 μM α,β-meATP every 2 min, measured 6 min after drug application, read-out: IC50 for inhibition of P2X3 mediated currents): 550 ± 200 nM

Nc1ncnc2c1ncn2[C@@H]1O[C@H](COP(=O)(O)OP(=O)(O)NP(=O)(O)OP(=O)(O)OC[C@H]2O[C@@H](n3cnc4c(N)ncnc43)C(O)C2O)C(O)C1O (stereo in doubt) [AppNHppA]
nociceptive behavior after control injection of compound alone [1]: Lack of nociceptive behavior
IC50 [1, 3]: > 100000 nM
IC50 [1, 4]: 250 ± 90 nM
IC50 [1, 5]: > 100000 nM
IC50 [1, 6]: 250 ± 60 nM
IC50 First phase (acute pain), calculated [1]: >250 nmol/kg
IC50 Second phase (chronic pain), calculated [1]: 0.63 ± 0.23 nmol/kg
First phase (acute pain) [1]: >250 nmol/kg
First phase (acute pain) (μg/kg) [1]: (209) μg/kg
Second phase (chronic pain) [1]: 0.63 ± 0.23 nmol/kg
Second phase (chronic pain) (μg/kg) [1]: (0.526) μg/kg
First phase (acute pain) Human (70 kg) nmol [1]: 17500 nmol
Second phase (chronic pain) Human (70 kg) nmol [1]: 44.1 nmol
First phase (acute pain) Rat (40 g) nmol [1]: 10 nmol
Second phase (chronic pain) Rat (40 g) nmol [1]: 0.0252 nmol
recalculated effective concentration (second phase) [1]: 0.63±0.23 nmolkg
number of nocifensive events triggered by the injection of formalin [1]: potently reduced
kH, second (tonic) phase ([1]; co-injection with formalin): 0.89±0.18
EC50 [2]: 41600 ± 1300 nM
IC50 [2]: 200 ± 40 nM
amplitude of the following α,β-meATP response ([2]; 10 nM applied for 6 min): almost unchanged
inhibition (suppression) of test responses ([2]; 3 μM): strong (almost full) inhibition
induction of membrane currents ([2]; 0.1 or 1 μM): not to induce membrane currents
induction of membrane currents ([2]; 10 or 100 μM): small and slowly desensitizing currents
remaining activity at 0.1 µM ([2]; HEK293, read-out: test responses reduced to (% of control)): 38.2 ± 8.5%
nH of the activation dose-response curve [2]: 1.58±0.05
current response as % of the response induced by 10 μM of α,β-meATP ([2]; saturating 1 mM concentration, same cell): 41.2±13%
